Measurements: the supplement of paper PMC10307832

Experiments:
Assay in all cases: relative viability (nuclei count vs DMSO), 5 days (fraction); higher = more cells survive
NCI-H1793 = system: NCI-H1793
In short: (§1)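 Medians of duplicate plates are given as relative viability. That measure is the nuclei count in treated wells divided by the count in vehicle wells. Counts were taken on 4× images of lung cancer cell lines in 1536-well plates, 5 days after pin-tool dosing the day after seeding with one drug alone or a fixed anchor-drug dose plus five library-drug doses (not always all listed) in √10 steps.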

A-427 = system: A-427
In short: as §1

LXF-289 = system: LXF-289
In short: as §1

EMC-BAC-2 = system: EMC-BAC-2
In short: as §1

NCI-H2009 = system: NCI-H2009
In short: as §1

SK-MES-1 = system: SK-MES-1
In short: as §1

NCI-H1944 = system: NCI-H1944
In short: as §1

ABC-1 = system: ABC-1
In short: as §1

NCI-H1993 = system: NCI-H1993
In short: as §1

PC-3 [JPC-3] = system: PC-3 [JPC-3]
In short: as §1

NCI-H596 = system: NCI-H596
In short: as §1

NCI-H1792 = system: NCI-H1792
In short: as §1

NCI-H3122 = system: NCI-H3122
In short: as §1

HARA = system: HARA
In short: as §1

SW 1573 = system: SW 1573
In short: as §1

SK-LU-1 = system: SK-LU-1
In short: as §1

HOP-62 = system: HOP-62
In short: as §1

NCI-H2228 = system: NCI-H2228
In short: as §1

COR-L23 = system: COR-L23
In short: as §1

NCI-H727 = system: NCI-H727
In short: as §1

NCI-H2170 = system: NCI-H2170
In short: as §1

LK-2 = system: LK-2
In short: as §1

Oc1nc(-c2ccc(C(F)(F)F)cc2)nc2c1CSCC2 [XAV939] + CS(=O)(=O)N1CCN(Cc2cc3nc(-c4cccc5[nH]ncc45)nc(N4CCOCC4)c3s2)CC1 [Pictilisib] (partner 1 µM)
relative viability (NCI-H1793; first compound 0.08 µM): 0.344 | relative viability (NCI-H1793; first compound 0.253 µM): 0.308 | relative viability (NCI-H1793; first compound 0.8 µM): 0.308 | relative viability (NCI-H1793; first compound 2.53 µM): 0.363 | relative viability (A-427; first compound 0.08 µM): 0.962 | relative viability (A-427; first compound 0.253 µM): 0.63 | relative viability (A-427; first compound 0.8 µM): 0.596 | relative viability (A-427; first compound 2.53 µM): 0.65 | relative viability (LXF-289; first compound 0.08 µM): 0.872 | relative viability (LXF-289; first compound 0.253 µM): 0.731 | relative viability (LXF-289; first compound 0.8 µM): 0.764 | relative viability (LXF-289; first compound 2.53 µM): 0.597 | relative viability (EMC-BAC-2; first compound 0.08 µM): 0.56 | relative viability (EMC-BAC-2; first compound 0.253 µM): 0.487 | relative viability (EMC-BAC-2; first compound 0.8 µM): 0.416 | relative viability (EMC-BAC-2; first compound 2.53 µM): 0.314 | relative viability (NCI-H2009; first compound 0.08 µM): 0.878 | relative viability (NCI-H2009; first compound 0.253 µM): 0.718 | relative viability (NCI-H2009; first compound 0.8 µM): 0.67 | relative viability (NCI-H2009; first compound 2.53 µM): 0.511 | relative viability (SK-MES-1; first compound 0.08 µM): 0.401 | relative viability (SK-MES-1; first compound 0.253 µM): 0.327 | relative viability (SK-MES-1; first compound 0.8 µM): 0.415 | relative viability (SK-MES-1; first compound 2.53 µM): 0.32 | relative viability (NCI-H1944; first compound 0.08 µM): 0.37 | relative viability (NCI-H1944; first compound 0.253 µM): 0.197 | relative viability (NCI-H1944; first compound 0.8 µM): 0.348 | relative viability (NCI-H1944; first compound 2.53 µM): 0.287 | relative viability (ABC-1; first compound 0.08 µM): 0.759 | relative viability (ABC-1; first compound 0.253 µM): 0.581 | relative viability (ABC-1; first compound 0.8 µM): 0.602 | relative viability (ABC-1; first compound 2.53 µM): 0.348 | relative viability (NCI-H1993; first compound 0.8 µM): 0.911 | relative viability (NCI-H1993; first compound 2.53 µM): 0.7 | relative viability (PC-3 [JPC-3]; first compound 0.08 µM): 0.681 | relative viability (PC-3 [JPC-3]; first compound 0.253 µM): 0.602 | relative viability (PC-3 [JPC-3]; first compound 0.8 µM): 0.663 | relative viability (PC-3 [JPC-3]; first compound 2.53 µM): 0.697 | relative viability (NCI-H596; first compound 0.08 µM): 0.427 | relative viability (NCI-H596; first compound 0.253 µM): 0.384 | relative viability (NCI-H596; first compound 0.8 µM): 0.422 | relative viability (NCI-H596; first compound 2.53 µM): 0.4 | relative viability (NCI-H1792; first compound 0.08 µM): 0.331 | relative viability (NCI-H1792; first compound 0.253 µM): 0.254 | relative viability (NCI-H1792; first compound 0.8 µM): 0.229 | relative viability (NCI-H1792; first compound 2.53 µM): 0.257 | relative viability (NCI-H3122; first compound 0.08 µM): 0.667 | relative viability (NCI-H3122; first compound 0.253 µM): 0.533 | relative viability (NCI-H3122; first compound 0.8 µM): 0.568 | relative viability (NCI-H3122; first compound 2.53 µM): 0.381 | relative viability (HARA; first compound 0.08 µM): 0.477 | relative viability (HARA; first compound 0.253 µM): 0.386 | relative viability (HARA; first compound 0.8 µM): 0.345 | relative viability (HARA; first compound 2.53 µM): 0.394 | relative viability (SW 1573; first compound 0.08 µM): 0.542 | relative viability (SW 1573; first compound 0.253 µM): 0.403 | relative viability (SW 1573; first compound 0.8 µM): 0.357 | relative viability (SW 1573; first compound 2.53 µM): 0.392 | relative viability (SK-LU-1; first compound 0.08 µM): 0.631 | relative viability (SK-LU-1; first compound 0.253 µM): 0.504 | relative viability (SK-LU-1; first compound 0.8 µM): 0.646 | relative viability (SK-LU-1; first compound 2.53 µM): 0.565 | relative viability (HOP-62; first compound 0.08 µM): 1.04 | relative viability (HOP-62; first compound 0.253 µM): 0.62 | relative viability (HOP-62; first compound 0.8 µM): 0.596 | relative viability (HOP-62; first compound 2.53 µM): 0.672 | relative viability (NCI-H2228; first compound 0.08 µM): 0.247 | relative viability (NCI-H2228; first compound 0.253 µM): 0.304 | relative viability (NCI-H2228; first compound 0.8 µM): 0.253 | relative viability (NCI-H2228; first compound 2.53 µM): 0.382 | relative viability (COR-L23; first compound 0.08 µM): 1.05 | relative viability (COR-L23; first compound 0.253 µM): 0.768 | relative viability (COR-L23; first compound 0.8 µM): 0.757 | relative viability (COR-L23; first compound 2.53 µM): 0.564 | relative viability (NCI-H727; first compound 0.08 µM): 0.367 | relative viability (NCI-H727; first compound 0.253 µM): 0.324 | relative viability (NCI-H727; first compound 0.8 µM): 0.415 | relative viability (NCI-H727; first compound 2.53 µM): 0.357 | relative viability (NCI-H2170; first compound 0.08 µM): 0.298 | relative viability (NCI-H2170; first compound 0.253 µM): 0.277 | relative viability (NCI-H2170; first compound 0.8 µM): 0.269 | relative viability (NCI-H2170; first compound 2.53 µM): 0.26 | relative viability (LK-2; first compound 0.08 µM): 0.565 | relative viability (LK-2; first compound 0.253 µM): 0.505 | relative viability (LK-2; first compound 0.8 µM): 0.643 | relative viability (LK-2; first compound 2.53 µM): 0.607
